Among the data in patent US20060069123A1, “Substituted dipiperidine CCR2 antagonists” (priority 2004, published 2006) are IC50 values, retold here.

Read-outs that look alike come from different tables or passages of the source.

For experiment [1], the system named is THP-1 cells. Briefly: MCP-1 Induced Chemotaxis in THP-1 Cells. The format is cell-based. As to conditions: Homo sapiens; THP-1 cells, MCP-1 0.01 μg/mL, 3 hours; read-out: Inhibition of MCP-1 Induced Chemotaxis IC50.
The target in the next experiment is T1, CCR2 (Homo sapiens, UniProt P41597).
T1 sequence (P41597 1-360 isoform P41597-2): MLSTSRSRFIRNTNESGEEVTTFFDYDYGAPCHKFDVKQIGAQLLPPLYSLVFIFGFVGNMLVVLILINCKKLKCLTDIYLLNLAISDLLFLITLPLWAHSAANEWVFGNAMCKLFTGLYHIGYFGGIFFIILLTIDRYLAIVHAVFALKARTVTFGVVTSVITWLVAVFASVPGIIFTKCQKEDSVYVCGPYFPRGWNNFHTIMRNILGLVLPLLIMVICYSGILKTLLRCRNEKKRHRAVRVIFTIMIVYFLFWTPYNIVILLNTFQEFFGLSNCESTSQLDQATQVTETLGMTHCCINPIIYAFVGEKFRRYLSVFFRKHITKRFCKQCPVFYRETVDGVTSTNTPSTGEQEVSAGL

Experiment [2] concerns THP-1 cells. As to conditions: Homo sapiens, THP-1, read-out: Inhibition of MCP-1 Induced Calcium Ion Influx IC50.

As to `O=C(/C=C/c1ccc(F)c(Br)c1)N1CCC(C(CO)N2CCC(c3ccncc3)CC2)CC1` (stereo not drawn) [Cpd 186, (2E)-3-(3-bromo-4-fluoro-phenyl)-1-{4-[2-hydroxy-1-(3,4,5,6-tetrahydro-2H-[4,4′]bipyridinyl-1-yl)-ethyl]-piperidin-1-yl}-propenone], the IC50 (usually the concentration needed to halve the response being measured) with THP-1 cells [1] was determined as 960 nM; against CCR2, 360 nM; in the experiment with THP-1 cells [2], 6100 nM.

Take `O=C(/C=C/c1cc(F)c(F)c(F)c1)N1CCC([C@@H](CO)N2CCC(c3c[nH]c4ccccc34)CC2)CC1` [Cpd 187, (2E)-1-(4-{(1S)-2-hydroxy-1-[4-(1H-indol-3-yl)-piperidin-1-yl]-ethyl}-piperidin-1-yl)-3-(3,4,5-trifluoro-phenyl)-propenone]: the IC50 turned out to be 2 nM in the experiment with THP-1 cells [1], 0.6 nM at CCR2 and 0.05 nM in the experiment on THP-1 cells [2].

For `O=C(/C=C/c1cc(F)c(F)c(F)c1)N1CCC([C@H](CO)N2CCC(c3c[nH]c4ccccc34)CC2)CC1` [Cpd 188, (2E)-1-(4-{(1R)-2-hydroxy-1-[4-(1H-indol-3-yl)-piperidin-1-yl]-ethyl}-piperidin-1-yl)-3-(3,4,5-trifluoro-phenyl)-propenone], the IC50 in the experiment with THP-1 cells [1] came to 20 nM; against CCR2, 29.5 nM; in the experiment on THP-1 cells [2] it was 10 nM.

On to `O=C(/C=C/c1cc(F)c(F)c(F)c1)N1CCC(C(CO)N2CCC(c3ccc4c(c3)OCO4)CC2)CC1` (stereo not drawn) [Cpd 189, (2E)-1-{4-[1-(4-benzo[1,3]dioxol-5-yl-piperidin-1-yl)-2-hydroxy-ethyl]-piperidin-1-yl}-3-(3,4,5-trifluoro-phenyl)-propenone], for which the values for the IC50 with THP-1 cells [1], at CCR2 and with THP-1 cells [2] were 720 nM, 170 nM and 160 nM, respectively.

Regarding `O=C(/C=C/c1cc(F)cc(F)c1)N1CCC(C(CO)N2CCC(c3ccc4c(c3)OCO4)CC2)CC1` (stereo not drawn) [Cpd 190], the IC50 in the experiment with THP-1 cells [1] was determined as 200 nM; against CCR2, 210 nM; in the experiment on THP-1 cells [2] it was 250 nM.

Consider `Nc1ccc2[nH]cc(C3CCN(C(CO)C4CCN(C(=O)/C=C/c5cc(F)c(F)c(F)c5)CC4)CC3)c2n1` (stereo not drawn) [Cpd 191, (2E)-1-(4-{1-[4-(5-amino-1H-pyrrolo[3,2-b]pyridin-3-yl)-piperidin-1-yl]-2-hydroxy-ethyl}-piperidin-1-yl)-3-(3,4,5-trifluoro-phenyl)-propenone], for which the results for the IC50 in the experiment with THP-1 cells [1], against CCR2 and with THP-1 cells [2] were 150 nM, 100 nM and 170 nM, respectively.

Regarding `O=C(/C=C/c1cc(F)cc(F)c1)N1CCC(C(CO)N2CCC(c3ccc(F)cc3)CC2)CC1` (stereo not drawn) [Cpd 192, (2E)-3-(3,5-difluoro-phenyl)-1-(4-{1-[4-(4-fluoro-phenyl)-piperidin-1-yl]-2-hydroxy-ethyl}-piperidin-1-yl)-propenone], the IC50 in the experiment on THP-1 cells [1] was determined as 350 nM; against CCR2, 220 nM; in the experiment on THP-1 cells [2], 170 nM.

On to `O=C(/C=C/c1cc(F)c(F)c(F)c1)N1CCC(C(CO)N2CCC(c3ccc(F)cc3)CC2)CC1` (stereo not drawn) [Cpd 193], for which the IC50 in the experiment on THP-1 cells [1] amounted to 1300 nM; on CCR2, 140 nM; with THP-1 cells [2] it was 140 nM.

On to `CS(=O)(=O)Nc1ccc2[nH]cc(C3CCN(C(CO)C4CCN(C(=O)/C=C/c5ccc(Cl)c(Cl)c5)CC4)CC3)c2c1` (stereo not drawn) [Cpd 198, N-{3-[1-(1-{1-[(2E)-3-(3,4-dichloro-phenyl)-acryloyl]-piperidin-4-yl}-2-hydroxy-ethyl)-piperidin-4-yl]-1H-indol-5-yl}-methanesulfonamide], for which the IC50 was 0.2 nM in the experiment with THP-1 cells [1], 0.6 nM against CCR2 and 0.02 nM in the experiment on THP-1 cells [2].

Regarding `CS(=O)(=O)Nc1ccc2[nH]cc(C3CCN(C(COC(=O)/C=C/c4cc(F)cc(F)c4)C4CCN(C(=O)/C=C/c5cc(F)cc(F)c5)CC4)CC3)c2c1` (stereo not drawn) [Cpd 199, (2E)-3-(3,5-difluoro-phenyl)-acrylic acid 2-{1-[(2E)-3-(3,5-difluoro-phenyl)-acryloyl]-piperidin-4-yl}-2-[4-(5-methanesulfonylamino-1H-indol-3-yl)-piperidin-1-yl]-ethyl ester], the results for the IC50 in the experiment with THP-1 cells [1], at CCR2 and with THP-1 cells [2] were 30 nM, 20 nM and 4 nM, respectively.

For `CS(=O)(=O)Nc1ccc2[nH]cc(C3CCN(C(CO)C4CCN(C(=O)/C=C/c5cc(F)c(F)c(F)c5)CC4)CC3)c2c1` (stereo not drawn) [Cpd 201, N-{3-[1-(2-hydroxy-1-{1-[(2E)-3-(3,4,5-trifluoro-phenyl)-acryloyl]-piperidin-4-yl}-ethyl)-piperidin-4-yl]-1H-indol-5-yl}-methanesulfonamide], the results for the IC50 in the experiment on THP-1 cells [1], on CCR2 and with THP-1 cells [2] were 3 nM, 1 nM and 0.6 nM, respectively.

Regarding `O=C(/C=C/c1cc(F)cc(F)c1)N1CCC(C(CO)N2CCC(c3c[nH]c4ncccc34)CC2)CC1` (stereo not drawn) [Cpd 202, (2E)-3-(3,5-difluoro-phenyl)-1-(4-{2-hydroxy-1-[4-(1H-pyrrolo[2,3-b]pyridin-3-yl)-piperidin-1-yl]-ethyl}-piperidin-1-yl)-propenone], the results for the IC50 with THP-1 cells [1], at CCR2 and in the experiment with THP-1 cells [2] were 15 nM, 19.3 nM and 8 nM, respectively.

Consider `COc1ccccc1C1CCN(C(CO)C2CCN(C(=O)/C=C/c3cc(F)cc(F)c3)CC2)CC1` (stereo not drawn) [Cpd 203, (2E)-3-(3,5-difluoro-phenyl)-1-(4-{2-hydroxy-1-[4-(2-methoxy-phenyl)-piperidin-1-yl]-ethyl}-piperidin-1-yl)-propenone], for which the IC50 turned out to be 1200 nM in the experiment with THP-1 cells [1], 510 nM at CCR2 and 5000 nM in the experiment with THP-1 cells [2].

Consider `O=C(/C=C/c1cc(F)cc(F)c1)N1CCC(C(CO)N2CCC(c3c[nH]c4c3ccc[n+]4[O-])CC2)CC1` (stereo not drawn) [Cpd 205, (2E)-3-(3,5-difluoro-phenyl)-1-(4-{2-hydroxy-1-[4-(7-oxy-1H-pyrrolo[2,3-b]pyridin-3-yl)-piperidin-1-yl]-ethyl}-piperidin-1-yl)-propenone], for which the IC50 in the experiment on THP-1 cells [1] stood at 40 nM; on CCR2, 40 nM; in the experiment on THP-1 cells [2], 20 nM.

Turning to `O=C(O)C(C1CCN(C(=O)/C=C/c2cc(F)c(F)c(F)c2)CC1)N1CCC(c2c[nH]c3cccnc23)CC1` (stereo not drawn) [Cpd 207, [4-(1H-pyrrolo[3,2-b]pyridin-3-yl)-piperidin-1-yl]-{1-[(2E)-3-(3,4,5-trifluoro-phenyl)-acryloyl]-piperidin-4-yl}-acetic acid], the IC50 stood at 190 nM in the experiment on THP-1 cells [1], 210 nM against CCR2 and 110 nM in the experiment with THP-1 cells [2].

As to `CC(=O)NCC(C1CCN(C(=O)/C=C/c2cc(F)cc(F)c2)CC1)N1CCC(c2c[nH]c3ccccc23)CC1` (stereo not drawn) [Cpd 214, N-{2-{1-[(2E)-3-(3,5-difluoro-phenyl)-acryloyl]-piperidin-4-yl}-2-[4-(1H-indol-3-yl)-piperidin-1-yl]-ethyl}-acetamide], the results for the IC50 in the experiment with THP-1 cells [1], against CCR2 and with THP-1 cells [2] were 190 nM, 70 nM and 180 nM, respectively.

As for `CC(=O)NCC(C1CCN(C(=O)/C=C/c2ccc(Cl)c(Cl)c2)CC1)N1CCC(c2c[nH]c3ccccc23)CC1` (stereo not drawn) [Cpd 215], the IC50 is 460 nM with THP-1 cells [1], 90 nM against CCR2 and 20 nM in the experiment with THP-1 cells [2].

Turning to `CC(=O)NCC(C1CCN(C(=O)/C=C/c2cccc(C)c2)CC1)N1CCC(c2c[nH]c3ccccc23)CC1` (stereo not drawn) [Cpd 216], the IC50 in the experiment with THP-1 cells [1] is 700 nM; on CCR2, 250 nM; with THP-1 cells [2], 1800 nM.

Turning to `CC(=O)NCC(C1CCN(C(=O)Nc2ccc(Cl)c(Cl)c2)CC1)N1CCC(c2c[nH]c3ccccc23)CC1` (stereo not drawn) [Cpd 217], the IC50 was found to be 620 nM in the experiment on THP-1 cells [1], 210 nM against CCR2 and 2000 nM in the experiment with THP-1 cells [2].

As to `CC(=O)OCC(C1CCN(C(=O)/C=C/c2cc(F)cc(F)c2)CC1)N1CCC(c2c[nH]c3ccccc23)CC1` (stereo not drawn) [Cpd 235, acetic acid 2-{1-[(2E)-3-(3,5-difluoro-phenyl)-acryloyl]-piperidin-4-yl}-2-[4-(1H-indol-3-yl)-piperidin-1-yl]-ethyl ester], the results for the IC50 in the experiment with THP-1 cells [1], on CCR2 and in the experiment on THP-1 cells [2] were 8 nM, 30 nM and 20 nM, respectively.

Take `CC(=O)OCC(C1CCN(C(=O)/C=C/c2cc(F)c(F)c(F)c2)CC1)N1CCC(c2c[nH]c3ccccc23)CC1` (stereo not drawn) [Cpd 236, acetic acid 2-[4-(1H-indol-3-yl)-piperidin-1-yl]-2-{1-[(2E)-3-(3,4,5-trifluoro-phenyl)-acryloyl]-piperidin-4-yl}-ethyl ester]: the IC50 in the experiment on THP-1 cells [1] was 20 nM; against CCR2 it was 20 nM; in the experiment on THP-1 cells [2], 30 nM.

As to `CC(=O)OCC(C1CCN(C(=O)/C=C/c2ccc(Cl)c(Cl)c2)CC1)N1CCC(c2c[nH]c3ccccc23)CC1` (stereo not drawn) [Cpd 237, acetic acid 2-{1-[(2E)-3-(3,4-dichloro-phenyl)-acryloyl]-piperidin-4-yl}-2-[4-(1H-indol-3-yl)-piperidin-1-yl]-ethyl ester], the IC50 was 110 nM in the experiment with THP-1 cells [1], 215 nM against CCR2 and 70 nM in the experiment on THP-1 cells [2].

As to `CC(=O)OCC(C1CCN(C(=O)Nc2ccc(Cl)c(Cl)c2)CC1)N1CCC(c2c[nH]c3ccccc23)CC1` (stereo not drawn) [Cpd 242, acetic acid 2-[1-(3,4-dichloro-phenylcarbamoyl)-piperidin-4-yl]-2-[4-(1H-indol-3-yl)-piperidin-1-yl]-ethyl ester], the IC50 in the experiment on THP-1 cells [1] came to 270 nM; against CCR2 it was 230 nM; in the experiment on THP-1 cells [2], 40 nM.
